{"source": "patent US11725006B2", "about": "“Hydrophilic berberine-type derivative and application thereof in preparing drug” (INSTITUTE OF MATERIA MEDICA, CHINESE ACADEMY OF MEDICAL …, priority 2018, dated 2023)", "key": {"[1]": {"test": "Alcohol-solubility examination in 95% ethanol under refluxing", "format": "physicochemical", "conditions": "per gram of compound, within 30 minutes", "method": "The compounds of the invention were weighed and placed into different amount of 95% ethanol solvent under refluxing, respectively. The dissolution status within 30 minutes was observed. If there were no visible solute particle, it would be regarded as complete dissolution."}, "[2]": {"test": "Hydrosolubility examination in pure water", "format": "physicochemical", "conditions": "per milliliter of purified water, 25° C.±2° C., visual, within 30 minutes", "method": "The compounds of the invention were weighed and placed into a certain amount of pure water solvent under 25° C.±2° C., respectively. […] If there were no visible solute particle, it would be regarded as complete dissolution."}, "[3]": {"tested_on": "Staphylococcus aureus", "test": "MIC by twofold microdilution broth method", "format": "cell-based", "conditions": "24 h; for MIC: Staphylococcus aureus, read-out: MIC S. aureus", "method": "(§1) (1) Strains: Staphylococcus aureus, Escherichia colt, Candida albicans MCC (F) 98001.\n(§2) (2) Experimental method: the anti-bacterial activity of the compounds of the invention was evaluated by determining the minimum inhibitory concentration (MIC) using the twofold microdilution broth method. The compounds of the invention and the reference substances (quaternary ammonium salt substrates of berberine-type alkaloids and levofloxacin) were prepared into a 20000 μg/ml stock solution with DMSO for use. S. aureus and E. coli were diluted using MHB (Mueller Hinton Broth) medium, and C. albicans using Sabouraud medium, all prepared into 10^6 CFU (colony forming unit) concentration as bacterial suspensions for use. The determination steps of MIC are as follows. First, 180 μl of MHB medium (for S. aureus and E. coli) or Sabouraud Medium (for C. albicans) was transferred to the first well in each row of the sterile 96 well plate, and 100 μl to the second to the 11th wells of each row, and 200 μl to the 12th well as negative blank control well. 20 μl sample stock solution was taken and added to the first well. After mixed up, 100 μl was taken from the first well and transferred to the second well. The same as mentioned above, the second well was mixed up, 100 μl of mixed content was taken from the second well and added to the third well, as described above. As such, the same operation was continued till the 10th well, and finally 100 μl of content was drawn from the 10th well and discarded. The bacterial suspension of 100 μl was added to each of the aforementioned from first to eleven wells and mixed up. Three parallel groups for each sample were set up. The 96 well plates were put into the incubator to culture for 24 h. […] The MIC values of each sample to be tested as well as those of the references were observed and recorded with the naked eyes."}, "[4]": {"tested_on": "Candida albicans MCC (F) 98001", "test": "MIC by twofold microdilution broth method", "format": "cell-based", "conditions": "24 h; for MIC: Candida albicans, read-out: MIC C. albicans", "method": "as §1, §2"}, "[5]": {"tested_on": "Escherichia coli", "test": "MIC by twofold microdilution broth method", "format": "cell-based", "conditions": "24 h, read-out: MIC E. coli", "method": "as §1, §2"}, "[6]": {"tested_on": "C57b1/6j mice model of ulcerative colitis induced by DSS", "test": "Acute ulcerative colitis model induced by dextran sodium sulfate (DSS)", "format": "in vivo", "conditions": "for Percentage of colon contracture: compared to colon length in normal control group; for body weight loss percentage: compared with body weight at the beginning of the experiment; for Body weight change rate: end versus start", "method": "(1) Animals: C57b1/6j mice, male (20-22 g); seven mice in each group.\n(3) Dosage and times of administration: The positive drug was 500 mg/kg, both dihydrocoptisine and the compounds of the invention were 100 mg/kg, once a day for eight days.\n(4) Experimental methods: The method of this experiment was a literature method: see Zhi-Hui Zhang, Hai-Jing Zhang, An-Jun Deng, Bo Wang, Zhi-Hong Li,\nYang Liu, Lian-Qiu Wu, Wen-Jie Wang, and Hai-Lin Qin. Synthesis and Structure-activity Relationships of Quaternary Coptisine Derivatives as Potential Anti-ulcerative Colitis Agents. Journal of Medicinal Chemistry. 2015, 58, 7557-7571.\nThe effect of the compounds of the invention on the disease activity index (DAI) and the inhibition rate of DAI in the C57b1/6j mice model of ulcerative colitis induced by DSS was investigated. […] In Table 5, **, P<0.01, compared with the normal control group; ^#, P<0.05 and ^##, P<0.01, compared with the model group."}, "[7]": {"tested_on": "colorectal cancer model mice induced by AOM/DSS", "test": "Colorectal cancer model mice induced by AOM/DSS", "format": "in vivo, C57b1/6j mice", "conditions": "250 mg/kg by gavage, two weeks on, one week off, 12 weeks", "quoted_text": "C57b1/6j mice were randomly grouped according to the above experimental grouping scheme, five mice in the normal control group, and ten other groups.\nAfter one week's normal pre-feeding, normal feeding was done for another two weeks. From the 3rd week on, 0.5% carboxymethylcellulose sodium water solution was administered by gavage in the amount of 10 ml/kg. Administration mode was such that the drug was administered once a day for 12 weeks until the end of the experiment.\nAfter one week of normal pre-feeding, AOM was given by intraperitoneal injection at a dose of 10 mg/kg (Prepared by a concentration of 10 mg AOM in 10 ml of normal saline). Then the animals were fed normally for one week, which was recorded as the first week of the experiment. At the beginning of the second week, mice were allowed to drink the drinking aqueous solution containing 2% DSS freely for one week. […] From the 3rd week on, 0.5% carboxymethylcellulose sodium water solution was administrated by gavage at the amount of 10 ml/kg. The administration mode was such that the drug was administered once a day for 12 weeks until the end of the experiment. (3) Positive Drug Capecitabine Group\nAfter one week of normal pre-feeding, AOM was given by intraperitoneal injection at a dose of 10 mg/kg (Prepared by a concentration of 10 mg AOM in 10 ml of normal saline). Then the animals were fed normally for one week, which was recorded as the first week of the experiment. At the beginning of the second week, mice were allowed to drink the drinking water solution containing 2% DSS freely for one week. […] The administration lasted for 12 weeks (including the weeks of drug withdrawal).\nAfter one week of normal pre-feeding, AOM was given by intraperitoneal injection at a dose of 10 mg/kg (prepared by a concentration of 10 mg AOM in 10 ml of normal saline). Then the animals were fed normally for one week, which was recorded as the first week of the experiment. At the beginning of the second week, mice were allowed to drink the drinking water solution containing 2% DSS freely for one week. […] The administration mode was such that the drug was administered once a day, up to the end of the experiment. The administration lasted for 12 weeks.\nThe calculation method of calculated tumor burden value is as follows: Tumor burden=(Mean tumor diameter/numbers of mice)^2×(Tumor number/numbers of mice)"}, "[8]": {"tested_on": "acute ear swelling model of mice caused by croton oil", "test": "Acute ear swelling model of mice caused by croton oil", "format": "in vivo, Balb/c mice", "conditions": "5 mg/kg by gavage", "quoted_text": "(1) Animals: Balb/c mice, male (20-22 g); eight mice in each group.\n(4) Experimental methods: the mice in the model group were administrated 0.9% normal saline (dosage volume: 10 ml/kg) by the intragastrical administration. In the positive drug group, the positive drug was prepared by 5 mg/kg of dosage using 0.9% normal saline as the solvent and was administrated by gavage (dosage volume: 10 ml/kg). In the compounds of the invention administration groups, the compounds were prepared by 100 mg/kg of dosage using 0.9% normal saline as the solvent and were administrated by gavage (dosage volume: 10 ml/kg). After the last administration, all mice were induced to inflammation by daubing 20 μl of croton oil acetone solution on both sides of the right ear, the left ear not daubed as normal control ear. After 4 hours of modeling, the mice were killed, the ears were cut off along the auricle baseline, and the ear pieces of each subject were taken off at the counterpart place of each ear with a perforator and weighed. The difference between the weight of the right ear piece and that of the left ear piece indicated the degree of inflammatory swelling. The inhibition rate of drugs on ear swelling (%) was calculated by comparing the ear swelling degree values of each administration group and positive drug group with the data of model group. Inhibition rate (%)=[(swelling degree of model group−swelling degree of administration group)/swelling degree of model group]×100 (%)\n(5) Statistical analysis: The experimental results were expressed as ‘mean±sd’. The statistical differences between the two groups were calculated and analyzed by t-test method. ^#, indicates P<0.05 (compared with the model group); and ^##, P<0.01 (compared with the model group)."}, "[9]": {"conditions": "Sabouraud medium, 25° C., stock solution 20000 μg/ml"}, "[10]": {"conditions": "100 mg/kg, listed as dihydrocoptisine"}}, "note": "Where “and” joins values, the source holds several entries; their conditions need not be identical. Equal values may be shown once. Where a name gives a salt, the structure may show the parent alone. Read-outs that look alike come from different tables or passages of the source. Marks after values point to notes of the source that are not given here."}
{"smiles": "COc1ccc2cc3[n+](c(C(Cl)Cl)c2c1OC)CCc1cc2c(cc1-3)OCO2.O=C([O-])/C=C\\C(=O)O", "note": "[Compound 27, 8-dichloromethyl berberine hydrogen maleate]", "values": [{"measurement": "amount of 95% ethanol solvent required for dissolving each gram", "setting": "[1]", "result": 5.8, "unit": "mL"}, {"measurement": "amount dissolved in each milliliter of water", "setting": "[2]", "result": 3.83, "unit": "mg"}]}
{"smiles": "COc1ccc2cc3[n+](cc2c1OC)CCc1cc2c(cc1-3)OCO2", "note": "[berberine hydrochloride]", "values": [{"measurement": "amount dissolved in each milliliter of water", "setting": "[2]", "result": "< 2", "unit": "mg"}, {"measurement": "MIC S. aureus", "setting": "[3]; MHB medium, 37° C.", "result": 125, "unit": "µg/mL"}, {"measurement": "MIC", "setting": "[3]; MHB medium, 37° C.", "result": 125, "unit": "µg/mL"}, {"measurement": "MIC", "setting": "[4]; [9]", "result": 250, "unit": "µg/mL"}, {"measurement": "MIC C. albicans", "setting": "[4]; [9]", "result": 250, "unit": "µg/mL"}, {"measurement": "MIC", "setting": "[5]; MHB medium, 37° C.", "result": 250, "unit": "µg/mL"}]}
{"smiles": "Cc1ccc(S(=O)(=O)[O-])cc1.ClC(Cl)c1c2c3c(ccc2cc2[n+]1CCc1cc4c(cc1-2)OCO4)OCO3", "note": "[Compound 29, 8-dichloromethyl coptisine tosylate]", "values": [{"measurement": "amount of 95% ethanol solvent required for dissolving each gram", "setting": "[1]", "result": 24, "unit": "mL"}]}
{"smiles": "ClC(Cl)c1c2c3c(ccc2cc2[n+]1CCc1cc4c(cc1-2)OCO4)OCO3.O=C([O-])/C=C\\C(=O)O", "note": "[Compound 25, 8-dichloromethyl coptisine hydrogen maleate]", "values": [{"measurement": "amount of 95% ethanol solvent required for dissolving each gram", "setting": "[1]", "result": 23, "unit": "mL"}]}
{"smiles": "C[C@H]1COc2c(N3CCN(C)CC3)c(F)cc3c(=O)c(C(=O)O)cn1c23", "note": "[Levofloxacin]", "values": [{"measurement": "MIC", "setting": "[3]; MHB medium, 37° C.", "result": "< 1.95", "unit": "µg/mL"}, {"measurement": "MIC", "setting": "[4]; [9]", "result": "> 250", "unit": "µg/mL"}, {"measurement": "MIC C. albicans", "setting": "[4]; [9]", "result": "more than 250 ug/mL"}, {"measurement": "MIC", "setting": "[5]; MHB medium, 37° C.", "result": "< 1.95", "unit": "µg/mL"}]}
{"smiles": "COc1ccc2cc3[n+](c(C(Cl)Cl)c2c1OC)CCc1cc2c(cc1-3)OCO2.Cc1ccc(S(=O)(=O)[O-])cc1", "note": "[Compound 31, 8-dichloromethyl berberine tosylate]", "values": [{"measurement": "amount of 95% ethanol solvent required for dissolving each gram", "setting": "[1]", "result": 7, "unit": "mL"}, {"measurement": "amount dissolved in each milliliter of water", "setting": "[2]", "result": 5.0, "unit": "mg"}]}
{"smiles": "O=C(O)c1cc(/N=N/c2ccc(S(=O)(=O)Nc3ccccn3)cc2)ccc1O", "note": "[SASP, salazosulfapyridine]", "values": [{"measurement": "Colon length", "setting": "[6]; 500 mg/kg", "result": "5.90 cm and 5.90 ± 0.30^# cm"}, {"measurement": "DAI", "setting": "[6]; 500 mg/kg", "result": "3.07 ± 1.01^#"}, {"measurement": "DAI inhibition rate", "setting": "[6]; 500 mg/kg", "result": 23.33, "unit": "%"}, {"measurement": "Body weight (g) X ± SD End", "setting": "[6]; 500 mg/kg once a day for eight days", "result": "15.86 ± 1.58", "unit": "g"}, {"measurement": "Percentage of colon contracture", "setting": "[6]; 500 mg/kg", "result": 28.43, "unit": "%"}, {"measurement": "body weight loss percentage", "setting": "[6]; 500 mg/kg", "result": 27.70, "unit": "%"}, {"measurement": "Body weight change rate", "setting": "[6]; 500 mg/kg", "result": "−27.70", "unit": "%"}]}
{"smiles": "CCCCCOC(=O)Nc1nc(=O)n([C@@H]2O[C@H](C)[C@@H](O)[C@H]2O)cc1F", "note": "[Capecitabine]", "values": [{"measurement": "Spleen weight", "setting": "[7]", "result": "0.228 ± 0.029", "unit": "g"}, {"measurement": "Tumor burden (relatively calculated value)", "setting": "[7]", "result": "42.69 ± 10.26", "unit": "piece"}, {"measurement": "Spleen weight", "setting": "[7]; listed as capecitabine", "result": "0.228 ± 0.029", "unit": "g"}, {"measurement": "Tumor burden (relatively calculated value)", "setting": "[7]; listed as capecitabine", "result": "42.69±10.26", "unit": "piece"}]}
{"smiles": "C1=C2c3cc4c(cc3CCN2Cc2c1ccc1c2OCO1)OCO4", "note": "[Dihydrocoptisine, dihydrocoptisine]", "values": [{"measurement": "Colon length", "setting": "[6]; 100 mg/kg", "result": "6.23 ± 0.14^## cm"}, {"measurement": "DAI", "setting": "[6]; 100 mg/kg", "result": "2.24 ± 0.97^##"}, {"measurement": "DAI inhibition rate", "setting": "[6]; 100 mg/kg", "result": "44.03^## %"}, {"measurement": "Body weight (g) X ± SD End", "setting": "[6]; 100 mg/kg once a day for eight days", "result": "18.43 ± 2.01", "unit": "g"}, {"measurement": "Percentage of colon contracture", "setting": "[6]; 100 mg/kg", "result": "23.93^## %"}, {"measurement": "Percentage of colon contracture", "setting": "[6]; [10]", "result": 23.93, "unit": "%"}, {"measurement": "body weight loss percentage", "setting": "[6]; 100 mg/kg", "result": 18.77, "unit": "%"}, {"measurement": "Body weight change rate", "setting": "[6]; 100 mg/kg", "result": "−18.77^# %"}, {"measurement": "Colon length", "setting": "[6]; [10]", "result": 6.23, "unit": "cm"}, {"measurement": "DAI inhibition rate", "setting": "[6]; [10]", "result": 44.03, "unit": "%"}]}
{"smiles": "c1c2c(cc3c1OCO3)-c1cc3ccc4c(c3c[n+]1CC2)OCO4", "note": "[coptisine hydrochloride]", "values": [{"measurement": "amount dissolved in each milliliter of water", "setting": "[2]", "result": "less than 1 mg"}, {"measurement": "MIC S. aureus", "setting": "[3]; MHB medium, 37° C.", "result": "more than 250 ug/mL"}, {"measurement": "MIC", "setting": "[3]", "result": "> 250", "unit": "µg/mL"}, {"measurement": "MIC", "setting": "[4]", "result": 250, "unit": "µg/mL"}, {"measurement": "MIC C. albicans", "setting": "[4]; [9]", "result": 250, "unit": "µg/mL"}, {"measurement": "MIC", "setting": "[5]", "result": "> 250", "unit": "µg/mL"}]}
{"smiles": "COc1ccc2cc3[n+](c(C(Cl)Cl)c2c1OC)CCc1cc2c(cc1-3)OCO2.O=S(=O)([O-])c1ccccc1", "note": "[Compound 47, 8-dichloromethyl berberine benzenesulfonate]", "values": [{"measurement": "amount of 95% ethanol solvent required for dissolving each gram", "setting": "[1]", "result": 7, "unit": "mL"}, {"measurement": "amount dissolved in each milliliter of water", "setting": "[2]", "result": 6.45, "unit": "mg"}]}
{"smiles": "COc1ccc2c(c1)c(CC(=O)O)c(C)n2C(=O)c1ccc(Cl)cc1", "note": "[Indomethacin]", "values": [{"measurement": "Inhibition rate (ear swelling)", "setting": "[8]", "result": "26.01^# %"}, {"measurement": "Degree of swelling", "setting": "[8]; 4 hours after croton oil", "result": "70.26 ± 20.97", "unit": "mg"}, {"measurement": "Inhibition rate (ear swelling)", "setting": "[8]; listed as indomethacin", "result": 26.01, "unit": "%"}]}
